Holding throughout (format): in vivo, rat
Test [1] relates to self-sustaining status epilepticus (SSSE). The test can be described thus: Experiment 1a: SSSE after electrical stimulation of the perforant path (60 min stimulation). The note with it: male Wistar rats, i.v. 10 min after end of 60 min perforant path stimulation; SPM 927 50 mg/kg, PHT 50 mg/kg, DZP 10 mg/kg; vs control. As to the method: (§1) Animals: The experiments were performed on male Wistar rats, 280-300 g (Simonsen Labs, Calif.). Animals were kept at a constant room temperature with 12 hours artificial dark-light cycle with free access to standard diet and tap water.
(§2) Surgery: Under ketamine (60 mg/kg)/xylazine (15 mg/kg) anesthesia, animals were implanted with a bipolar stimulating electrode into the angular bundle of the perforant path (4.5 mm to left lambda, 1 mm anterior to lambdoid fissure) and a bipolar recording electrode into the granule cell layer of the ipsilateral dentate gyrus (3.5 mm anterior to lambda, 2.2 mm left to sagittal fissure). Depth of both electrodes was optimized by monitoring the amplitude and waveform of the population spike evoked from the dentate gyrus by stimuli delivered through the perforant path (single square wave monophasic stimuli, 20 V, 0.1 ms delivered every 10 s).
(§3) Induction of self-sustaining status epilepticus (SSSE): Seven days after surgery, animals were connected to a Cardionics 16 channel preamplifier, which was connected to the IBM computer. After 5 minutes of baseline EEG recording, animals were stimulated in the awake state for 60 minutes (Experiment 1a) or 30 minutes (Experiments 1b and 1c) with 10 s 20 Hz trains (1 ms square wave, 20 V) delivered every minute, together with 2 Hz continuous stimulation with the same parameters.
(§4) EEG monitoring and analysis: EEG from the dentate gyrus was monitored and recorded by means of commercial software (Monitor 8.1 from Stellate Systems). The software was configured for automatic detection and saving of spikes and seizures. Monitoring was performed for 24 hrs. EEG was analyzed off line by means of the same software. Spike distribution was presented as number of spikes per 10 min epoch, and the cumulated duration of seizures for 24 hrs of monitoring were calculated. Statistical analysis was performed by means of T-test. A p value less than 0.05 was considered statistically significant.
(§5) Drug administration: SPM 927 (50 mg/kg, 5 animals), phenyloin (PHT) (50 mg/kg), fosphenyloin (F-PTH, Parke-Davis, 50 mg/kg of phenyloin equivalent, 5 animals), diazepam (DZP) (10 mg/kg) or vehicle (VEH, 10% DMSO, 6 animals) were given i.v. 10 min after the end of perforant path stimulation in a volume of 1 ml/kg.

The test system is the same in test [2]. Description: Experiment 1b: SSSE after electrical stimulation of the perforant path (30 min stimulation), SPM 927 vs fosphenyloin. The note with it: male Wistar rats, 50 mg/kg i.v. 10 min after end of 30 min stimulation; for spike frequency (number of spikes/10 min): vs control. As to the method: as §1, §2, §3, §4, §5
For test [3], the system named is hippocampal damage following SSSE. The test can be described thus: Experiment 1c: hippocampal damage following SSSE (damaged neuron score). Particulars: for hippocampal damage score, CA1 / hippocampal damage score, CA3 / hippocampal damage score, Hilus / hippocampal damage score, Subiculum: scale 0-5, brains collected 72 hours after SSSE. As for the experimental part: as §1, §2, §3, §5
Collection of tissue: Brains were collected 72 hours after SSSE. This was accomplished by transcardial perfusion with first heparinized normal saline for about 2 minutes to largely clear the vasculature of blood and second by phosphate buffered formaldehyde (10% formaldehyde at pH 7.4) for 10 to 15 min (approximately 50 to 60 ml). Carcasses were placed in the refrigerator overnight to further firm the tissue and the brains were dissected from the heads the following day.
Preparation of brain sections for light microscopy: after Removal, the Brains were passed through a graded series of alcohol and clearing agent (Hemo-De, Fisher) and then embedded in paraffin. Serial 8 micron-thick coronal sections were cut from the embedded tissue at approximately 100 micron intervals and float mounted onto microscope slides. The sections were stained with hematoxylin and eosin and coverslipped.
Selection of sections for counting: Selection of sections for counting was controlled by the stereotaxic atlas for rats (Paxinos and Watson). The 3 sections selected for quantitation contained dorsal hippocampus and were 1.6±0.05 mm posterior to bregma.
Location of counting fields—damage to the pyramidal cell layer was assessed by counting damaged neurons in the subiculum, CA1, CA3, CA3c and the hilus in the dorsal hippocampus. The neurons were assessed individually from the beginning of the subiculum to the end of the CA3c region using an Olympus Provis Ax 70 microscope at a magnification of 40×. The CA3-CA3c transition was defined by a line connecting the extremeties of the blades of the dentate gyrus. The hilus was defined as the space located between the blades of the dentate gyrus, excluding the line of CA3c pyramids.
Criteria for differentiation of damaged versus non-damaged neurons—neurons were counted only if the majority of the nucleus was present in the section. Damaged neurons were counted if they were distinctly eosinophilic or distinctly pyknotic or both. All other cells with most of the nucleus present in the section (and counting field) were counted as not damaged. Each brain was assessed on left side and right side individually and also combined. The counting fields were individually divided into subiculum, CA1, CA3, CA3c and hilus. […]

Test [4] deals with generalized tonic-clonic seizures (GTCS) in chemically induced SSSE. The test can be described thus: Experiment 2: chemically induced SSSE (cobalt/homocysteine thiolactone). The note with it: for mean # GTCS: Sprague-Dawley rats. As to the method:
Male Sprague-Dawley rats were prepared surgically with cobalt powder on the left frontal cortical surface.
Recording and stimulation protocol: Four epidural recording electrodes were arranged in a square grid (5 mm) over the cobalt lesion. EEG was monitored daily beginning 4-5 days following surgery. Status epilepticus was induced by i.p. injection of 5.5 mmol/kg homocysteine thiolactone whenever focal motor behaviour and EEG seizures were observed.
Drug administration: SPM 927 was administered (10-100 mg/kg) immediately following the second generalized tonic-clonic seizure (GTCS) occurring after homocysteine thiolactone injection.

Setting [5] is: 10 mg/kg, 30 min following treatment.
Where [6] appears, read: 20 mg/kg, 30 min following treatment.
Setting [7] is: 40 mg/kg, 30 min following treatment.
Where [8] appears, read: 80 mg/kg, 30 min following treatment.

The structures appear in SMILES notation. Where only a bound is given, the exact number is not on record here.

Consider `CN1C(=O)CN=C(c2ccccc2)c2cc(Cl)ccc21` [DZP, diazepam], for which, in test [1], the “cumulative seizure duration over the 24 h period” value was “potently and significantly reduced”; the “time to the last seizure” value is “potently and significantly reduced”.
Take `O=C1NC(c2ccccc2)(c2ccccc2)C(=O)N1COP(=O)(O)O` [Fosphenyloin, fosphenyloin, reference compound]: in test [2], the “time until seizures stopped after injection” value is ≤ 15 min and the “spike frequency (number of spikes/10 min)” value is on record as “significantly lower than in control animals but significantly higher than in SPM 927 treated rats”.
Consider `O=C1NC(=O)C(c2ccccc2)(c2ccccc2)N1` [PHT, phenyloin], for which, in test [1], the “cumulative seizure duration over the 24 h period” value is “potently and significantly reduced”; the “time to the last seizure” value is “potently and significantly reduced”.
With `COC[C@@H](NC(C)=O)C(=O)NCc1ccccc1` [SPM 927, (R)-2-acetamido-N-benzyl-3-methoxypropionamide], in test [1], the “cumulative seizure duration over the 24 h period” value was “potently and significantly reduced”. The “time to the last seizure” value in test [1] is “potently and significantly reduced”. Also, the “seizure recurrence over the next 24 hrs” value in test [2] is on record as “did not recur”. Moreover, in test [2], the “time during which a few single spikes were recorded” value is on record as “about 12 hrs”. In addition, the “time until seizures stopped after injection” value in test [2] was ≤ 15 min. For the same molecule, the “spike frequency (number of spikes/10 min)” value in test [2] was “significantly decreased”. The “hippocampal damage score, CA1” value in test [3] (Contralateral) is 1.2 ± 0.4; in test [3] (Ipsilateral), 1.0 ± 0.0. Besides, the “hippocampal damage score, CA3” value in test [3] (Contralateral) and in test [3] (Ipsilateral) was 1.0 ± 0.0 throughout. Further, the “hippocampal damage score, Hilus” value in test [3] (Contralateral) is listed as 1.4 ± 0.5; in test [3] (Ipsilateral), 1.2 ± 0.4. For the same molecule, the “hippocampal damage score, Subiculum” value in test [3] (Contralateral) and in test [3] (Ipsilateral) was 1.0 ± 0.0 in each case. The “injured neurons in any hippocampal field” value in test [3] (treated rats following SSSE) was “only an occasional injured neuron”. Also, the “interval to 1st GTCS” value in test [4] (10 mg/kg) was found to be 6.6 min; in test [4] (20 mg/kg) it was 8.9 min; in test [4] (40 mg/kg) it was 5.6 min; in test [4] (80 mg/kg), 14.0 min. The “# rats with GTCS” value is 8/8 in test [4] (setting [5]); 7/8 in test [4] (setting [6]); 4/8 in test [4] (setting [7]); 3/8 in test [4] (setting [8]); 0/8 in test [4] (100 mg/kg, 30 min following treatment). Further, the “mean # GTCS” value turned out to be 4.8 in test [4] (setting [5]), 2.7 in test [4] (setting [6]), 3.8 in test [4] (setting [7]) and 2.7 in test [4] (setting [8]). Moreover, the “number of rats experiencing GTCS” value in test [4] (10-100 mg/kg, 30 min following treatment) is on record as “reduced in a dose-dependent fashion”.

(Values after patent US20090018197A1, “METHODS FOR TREATING STATUS E[…] RELATED CONDITIONS” (priority 2003, published 2009).)
